One series has as its system E. coli K12. The series is classed as cell-based, Escherichia coli. The settings on record: K12. The procedure, abridged: (§1)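 Broth microdilution: exponential-phase bacteria at 10^6 CFU incubated with serially diluted peptides ~20 hours at 37° C, read at 630 nm to give MICs. For S. aureus USA300, effects of up to 10% human serum, pH 6.8/7.4/8.0 and 150 mM NaCl also tested.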

Another series has as its system S. epidermidis 1457. The class given is cell-based, Staphylococcus epidermidis. The essentials: as §1
A further series deals with B. subtilis 168. The series is classed as cell-based, Bacillus subtilis. The essentials: as §1
A further series concerns S. aureus Mu50. The series is classed as cell-based, Staphylococcus aureus. The essentials:
as §1

In the next series the test system is S. aureus Newman. The series is classed as cell-based, Staphylococcus aureus. The procedure, abridged: as §1
Another series has as its system S. aureus UAMS-1. The class given is cell-based, Staphylococcus aureus. The procedure, abridged:
as §1

Series [1] concerns S. aureus USA300. The series is classed as cell-based, Staphylococcus aureus. The settings on record: for Antimicrobial activity (MIC) 150 mM NaCl / Antimicrobial activity (MIC) USA300 / MIC S. aureus USA300: USA300; for Antimicrobial activity (MIC) pH 6.8: USA300, pH 6.8; for Antimicrobial activity (MIC) Normal medium (pH 7.4): USA300, pH 7.4; for Antimicrobial activity (MIC) pH 8: USA300, pH 8. The essentials: as §1

The subject of series [2] is S. aureus USA300. The class given is cell-based, Staphylococcus aureus. The settings on record: USA300. Here is the method: The minimal bactericidal concentration (MBC) was determined by plating 50 μl of the content in the clear wells of the above MIC assays. MBC was determined on the petri dishes without bacterial colony formation after overnight growth (Wang et al. (2012) Biochemistry 51:653-664).

Series [3] deals with Candida albicans ATCC 10231. The series is classed as cell-based. The conditions noted are these: ATCC 10231, 48 h. Here is the method:
(§2) Fungal strains used in this study include Candida albicans ATCC 10231, C. glabrata ATCC 2001 and C. tropicalis ATCC 13803. The fungi were grown in Remel Dex broth (Thermo Fisher Scientific, KS). Antifungal assays were conducted essentially as described for antibacterial assays above, except for a higher starting density at an OD600 0.02 and a longer incubation time of ˜48 hours prior to microplate reading (Mishra et al. (2015) RSC Advances 5:59758-59769).

A further series relates to C. glabrata ATCC 2001. The class given is cell-based, Candida glabrata. The settings on record: ATCC 2001, 48 h. As to the method: as §2
For a further series, the system named is C. tropicalis ATCC 13803. The series is classed as cell-based, Candida tropicalis. The conditions noted are these: ATCC 13803, 48 h. Here is the method:
as §2

The next series in a line: Hemolytic assay. The series is classed as cell-based. The conditions noted are these: red blood cells, hemolysis. As to the method: Hemolytic analysis of selected peptides was performed using an established protocol (Mishra et al. (2015) RSC Advances 5:59758-59769). Briefly, human blood cells (UNMC Blood Bank) were washed three times with phosphate buffer saline (PBS) and diluted to a 2% solution. After peptide treatment, incubation at 37° C. for one hour, and centrifugation at 13,000 rpm, aliquots of the supernatant were transferred to a fresh 96-well microplate. To assess peptide cytotoxicity, the amount of hemoglobin released was measured at 545 nm. The percent lysis was calculated by assuming 100% release when human blood cells were treated with 1% TRITON™ X-100, and 0% release when incubated with PBS buffer. The hemolytic assays using chicken, bovine, and porcine blood cells (Lampire Biological Laboratories, Inc.) were performed in the same manner.

A short description of series [4]: MTS cytotoxicity assay. The class given is cell-based. The settings on record: human. As to the method: (§3) HeLa CCL-2 epithelial adenocarcinoma cells from American Type Culture Collection (ATCC) were maintained in DMEM high glucose media with 4 mM L-glutamine (NyClone) and 100 U/mL penicillin, 100 μg/mL streptomycin (pen/strep) (Life Technologies), and 10% (v/v) inactivated fetal bovine serum (FBS) (NyClone). Cells were grown in 5% CO2 at 37° C. and were detached from the culturing dish at 80% confluency using 0.025% trypsin-EDTA (NyClone) treatment. Peptide influence on the cell viability was estimated by using the MTS assay according to the manufacturer's protocol (MTS, CellTiter96® AQ One Solution Cell Proliferation Assay, Promega) with minor modifications and as described elsewhere (Mishra et al. (2015) RSC Advances 5:59758-59769). In short, cells were cultured in flat bottomed 96 well microtiter plates (Corning Life Science) at a seeding density of 20,000 cells/well. At confluence ˜100% achieved after 20-24 hours of cultivation, the cells were washed twice with 100 μL Dulbecco's Phosphate Buffered Saline (Life Technologies). Further, 90 μL of DMEM media with 10% FBS, pen/step was added before exposure to 10 μL of the peptide solution in the concentration range 12.5-100 μM. Plates were incubated at 37° C. After 1 hour, 10 μL MTS, CellTiter96® was added. Plates were further incubated for another 2 hours at 37° C. and finally, the absorbance was measured on ChroMate® reader (Awareness Technology) at 492 nm. Culture medium and 0.2% SDS were used as negative and positive controls, respectively.
Human skin HaCaT (immortalized keratinocyte from AddexBio, T0020001) and kidney HEK293 cells were also cultivated for cytotoxicity evaluation of the peptides in a similar manner.
(In general: Formazan colour is commonly taken as a measure of viable cells.)

The nature of series [5]: MTS cytotoxicity assay. The conditions noted are these: human, HeLa CCL-2 cells. The series is classed as cell-based. As to the method:
as §3

[6] abbreviates: chicken, read-out: LC50 Chicken RBCs.
Where [7] appears, read: human, read-out: LC50 Human RBCs.
Setting [8] is: pig, read-out: LC50 Porcine RBCs.

For orientation: CC50 means the concentration that lowers cell viability or growth by half. A high value points to lower toxicity to the cells.

Converted amounts (≈) assume the structure as drawn. Like-named read-outs stand apart in the source and are kept apart here. Residues, ends and D or L forms follow the SMILES beside them.

With `CC[C@H](C)[C@H](NC(=O)[C@H](CCCCN)NC(=O)[C@H](CCCNC(=N)N)NC(=O)[C@H](CC(C)C)NC(=O)[C@H](Cc1c[nH]c2ccccc12)NC(=O)[C@H](Cc1c[nH]c2ccccc12)NC(=O)[C@@H](N)Cc1c[nH]c2ccccc12)C(=O)N[C@@H](Cc1c[nH]c2ccccc12)C(N)=O` [TetraF2W-RK, WWWLRKIW] (H-WWWLRKIW-NH2; N-terminus assumed), the “MIC E. coli K12” value against E. coli K12 was found to be 25 µM (≈ 31.8 µg/mL). The “MIC S. epidermidis 1457” value against S. epidermidis 1457 came to 6.2 µM (≈ 7.89 µg/mL). In addition, the “MIC B. subtilis 168” value against B. subtilis 168 was 6.2 µM (≈ 7.89 µg/mL). For the same compound, in the series with S. aureus Mu50, the “Antimicrobial activity (MIC) Mu50” value turned out to be 3.1 µM. In the series on S. aureus Newman, the “Antimicrobial activity (MIC) Newman” value was 3.1 µM. Also, in the series on S. aureus UAMS-1, the “Antimicrobial activity (MIC) UAMS-1” value stood at 6.2 µM. For the same compound, the “change in MIC on drop of pH from 8 to 6.8” value with S. aureus USA300 [1] (S. aureus USA300) is recorded as “two-fold”. In addition, in the series on S. aureus USA300 [1], the “Antimicrobial activity (MIC) 150 mM NaCl” value was 3.1 µM, the “Antimicrobial activity (MIC) USA300” value worked out at 3.1 µM, the “MIC S. aureus USA300” value is 3.1 µM (≈ 3.94 µg/mL) and the “Antimicrobial activity (MIC) pH 6.8” value worked out at 6.2 μM. In the series on S. aureus USA300 [1], the “Antimicrobial activity (MIC) Normal medium (pH 7.4)” value was found to be 3.1 μM and the “Antimicrobial activity (MIC) pH 8” value amounted to 3.1 μM. The “MBC S. aureus USA300” value against S. aureus USA300 [2] was 12.5 µM (≈ 15.9 µg/mL). Also, in series [3], the “MIC Candida albicans” value turned out to be 12.5 µM (≈ 15.9 µg/mL). In addition, in the series with C. glabrata ATCC 2001, the “MIC Candida glabrata” value worked out at 12.5 µM (≈ 15.9 µg/mL). Also, the “MIC Candida tropicalis” value against C. tropicalis ATCC 13803 lay in the range of 3.1 to 6.2 µM. Moreover, the HC50 at 1 hour in the series “Hemolytic assay” (setting [6]) was found to be 35 µM. Moreover, the HC50 at 1 hour in “Hemolytic assay” (setting [7]) stood at 30 µM. For the same compound, in the series “Hemolytic assay” (setting [8]), the HC50 at 1 hour is 40 µM. Also, the CC50 at 1 hour in the series “MTS cytotoxicity assay [4]” (HEK293 cells) is 60 µM. This compound also had a CC50 at 1 hour in the series “MTS cytotoxicity assay [4]” (HaCaT cells) of 60 µM. This compound came in with a CC50 at 1 hour in the series “MTS cytotoxicity assay [5]” greater than 100 µM.
As to `CC[C@H](C)[C@H](NC(=O)[C@H](CCCNC(=N)N)NC(=O)[C@H](CCCNC(=N)N)NC(=O)[C@H](CC(C)C)NC(=O)[C@H](Cc1c[nH]c2ccccc12)NC(=O)[C@H](Cc1c[nH]c2ccccc12)NC(=O)[C@@H](N)Cc1c[nH]c2ccccc12)C(=O)N[C@@H](Cc1c[nH]c2ccccc12)C(N)=O` [TetraF2W-RR, WWWLRRIW] (H-WWWLRRIW-NH2; N-terminus assumed), the “MIC E. coli K12” value in the series on E. coli K12 is 25 µM (≈ 32.5 µg/mL). Besides, the “MIC S. epidermidis 1457” value in the series on S. epidermidis 1457 was 6.2 to 12.5 µM. Further, the “MIC B. subtilis 168” value in the series on B. subtilis 168 lay in the range of 3.1 to 6.2 µM. The “Antimicrobial activity (MIC) Mu50” value in the series on S. aureus Mu50 stood at 3.1 µM. In the series with S. aureus Newman, the “Antimicrobial activity (MIC) Newman” value turned out to be 3.1 µM. Besides, in the series on S. aureus UAMS-1, the “Antimicrobial activity (MIC) UAMS-1” value was determined as 6.2 µM. Moreover, in the series with S. aureus USA300 [1] (S. aureus USA300), the “change in MIC on drop of pH from 8 to 6.8” value is “two-fold” and the “fold more potent than temporin-SHf (anti-MRSA)” value came to 8 fold. For the same compound, in the series on S. aureus USA300 [1], the “Antimicrobial activity (MIC) 150 mM NaCl” value amounted to 3.1 µM, the “Antimicrobial activity (MIC) USA300” value was 1.56 to 3.1 µM, the “MIC S. aureus USA300” value lay within 1.6 to 3.1 µM and the “Antimicrobial activity (MIC) pH 6.8” value is 6.2 μM. In the series with S. aureus USA300 [1], the “Antimicrobial activity (MIC) Normal medium (pH 7.4)” value is recorded as 1.56-3.1 μM and the “Antimicrobial activity (MIC) pH 8” value is reported as 3.1 μM. In addition, the “MBC S. aureus USA300” value against S. aureus USA300 [2] came to 3.1 µM (≈ 4.03 µg/mL). In [3], the “MIC Candida albicans” value amounted to 25 µM (≈ 32.5 µg/mL). Besides, in the series on C. glabrata ATCC 2001, the “MIC Candida glabrata” value is greater than 25 µM. The “MIC Candida tropicalis” value in the series with C. tropicalis ATCC 13803 amounted to 3.1 µM (≈ 4.03 µg/mL). Moreover, in the series “Hemolytic assay” (setting [6]), the HC50 at 1 hour turned out to be 55 µM. In addition, the HC50 at 1 hour in the series “Hemolytic assay” (setting [7]) is 20 µM. Further, the HC50 at 1 hour in the series “Hemolytic assay” (setting [8]) came to 40 µM. This compound also showed a CC50 at 1 hour in “MTS cytotoxicity assay [4]” (HEK293 cells) of 70 µM. The midpoint of cytotoxicity in “MTS cytotoxicity assay [4]” (HaCaT cells), the CC50 at 1 hour, lay at 70 µM. This compound yielded a CC50 at 1 hour in the series “MTS cytotoxicity assay [5]” of 60 µM.

Values taken from patent US20190048052A1, “ANTI-MICROBIAL PEPTIDES AND COATINGS” (Board of Regents of the University of Nebraska, priority 2016, published 2019).
